From patent US20240327389A1, “LACTONE AND LACTAM CONTAINING COMPOUNDS USEFUL AS IMMUNOMODULATORS” (BRISTOL-MYERS SQUIBB COMPANY, priority 2021, published 2024)

target: PD-1/PD-L1 interaction (PD-1-Ig / PD-L1-His) (Homo sapiens (Human), UniProt Q9NZQ7); test: PD-1/PD-L1 Homogenous Time-Resolved Fluorescence (HTRF) binding assay; conditions: PD-L1-His 10 nM final, PD-1-Ig 20 nM final
Source text: The ability of the compounds of the invention to bind to PD-L1 was investigated using a PD-1/PD-L1 Homogenous Time-Resolved Fluorescence (HTRF) binding assay.
The interaction of PD-1 and PD-L1 can be assessed using soluble, purified preparations of the extracellular domains of the two proteins. The PD-1 and PD-L1 protein extracellular domains were expressed as fusion proteins with detection tags, for PD-1, the tag was the Fc portion of Immunoglobulin (PD-1-Ig) and for PD-L1 it was the 6 histidine motif (PD-L1-His). All binding studies were performed in an HTRF assay buffer consisting of dPBS supplemented with 0.1% […] bovine serum albumin and 0.05% (v/v) Tween-20. For the h/PD-L1-His binding assay, inhibitors were pre-incubated with PD-L1-His (10 nM final) for 15 m in 4 μl of assay buffer, followed by addition of PD-1-Ig (20 nM final) in 1 μl of assay buffer and further incubation for 15 m. HTRF detection was achieved using europium crypate-labeled anti-Ig (1 nM final) and allophycocyanin (APC) labeled anti-His (20 nM final). Antibodies were diluted in HTRF detection buffer and 5 μl was dispensed on top of the binding reaction. The reaction mixture was allowed to equilibrate for 30 minutes and the resulting signal (665 nm/620 nm ratio) was obtained using an EnVision fluorometer. Additional binding assays were established between the human proteins PD-1-Ig/PD-L2-His (20 & 5 nM, respectively) and CD80-His/PD-L1-Ig (100 & 10 nM, respectively).
Recombinant Proteins: Human PD-1 (25-167) with a C-terminal human Fc domain of immunoglobulin G (Ig) epitope tag [hPD-1 (25-167)-3S-IG] and human PD-L1 (18-239) with a C-terminal His epitope tag [hPD-L1(18-239)-TVMV-His] were expressed in HEK293T cells and purified sequentially by ProteinA affinity chromatography and size exclusion chromatography. Human PD-L2-His and CD80-His was obtained through commercial sources.
Homogenous Time-Resolved Fluorescence (HTRF) Assays of Binding of Soluble PD-1 to Soluble PD-L1. Soluble PD-1 and soluble PD-L1 refers to proteins with carboxyl-end truncations that remove the transmembrane-spanning regions and are fused to heterologous sequences, specifically the Fc portion of the human immunoglobuling G sequence (Ig) or the hexahistidine epitope tag (His). All binding studies were performed in an HTRF assay buffer consisting of dPBS supplemented with 0.1% (w/v) bovine serum albumin and 0.05% (v/v) Tween-20. For the PD-1-Ig/PD-L1-His binding assay, inhibitors were pre-incubated with PD-L1-His (10 nM final) for 15 m in 4 μl of assay buffer, followed by addition of PD-1-Ig (20 nM final) in 1 μl of assay buffer and further incubation for 15 m. PD-L1 fusion proteins from either human, cynomologous macaques, mouse, or other species were used. HTRF detection was achieved using europium crypate-labeled anti-Ig monoclonal antibody (1 nM final) and allophycocyanin (APC) labeled anti-His monoclonal antibody (20 nM final). Antibodies were diluted in HTRF detection buffer and 5 μl was dispensed on top of binding reaction. The reaction was allowed to equilibrate for 30 minutes and signal (665 nm/620 nm ratio) was obtained using an EnVision fluorometer. Additional binding assays were established between PD-1-Ig/PD-L2-His (20 and 5 nM, respectively), CD80-His/PD-L1-Ig (100 and 10 nM, respectively) and CD80-His/CTLA4-Ig (10 and 5 nM, respectively).
Recombinant Proteins. Carboxyl-truncated human PD-1 (amino acids 25-167) with a C-terminal human Ig epitope tag [hPD-1 (25-167)-3S-IG] and human PD-L1 (amino acids 18-239) with a C-terminal His epitope tag [hPD-L1(19-239)-tobacco vein mottling virus protease cleavage site (TVMV)-His] were expressed in HEK293T cells and purified sequentially by recombinant Protein A affinity chromatography and size exclusion chromatography. Human PD-L2-His (Sino Biologicals), CD80-His (Sino Biologicals), CTLA4-Ig (RnD Systems) were all obtained through commercial sources.

PD-1/PD-L1 interaction (PD-1-Ig / PD-L1-His), sequence (Q9NZQ7 18-239): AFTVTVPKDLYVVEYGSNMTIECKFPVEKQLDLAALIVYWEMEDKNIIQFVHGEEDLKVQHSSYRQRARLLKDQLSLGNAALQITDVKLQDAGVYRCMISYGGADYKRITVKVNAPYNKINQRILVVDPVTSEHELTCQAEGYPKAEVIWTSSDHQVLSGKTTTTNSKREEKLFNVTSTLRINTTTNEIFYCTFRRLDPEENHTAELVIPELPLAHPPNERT

IC50 [nM]	Structure (SMILES)
3.1	Cc1c(COc2cc(OCc3cncc(C#N)c3)c(CN[C@@H]3COC(=O)C3)cc2Cl)cccc1-c1cccc(OCC2CCCN(C)C2)c1Cl (stereo partly drawn) [Compound 1004]
2.3	Cc1c(COc2cc(OCc3cncc(C#N)c3)c(CN[C@H]3CCNC3=O)cc2Cl)cccc1-c1cccc(OCC2CCCN(C)C2)c1Cl (stereo partly drawn) [Compound 1010]
2.4	Cc1c(COc2cc(OCc3cncc(C#N)c3)c(CNC3CCC(=O)NC3=O)cc2Cl)cccc1-c1cccc(OCC2CCCN(C)C2)c1Cl (stereo not drawn) [Compound 1015]
2.7	Cc1c(COc2cc(OCc3cncc(C#N)c3)c(CN[C@H]3CCOC3=O)cc2Cl)cccc1-c1cccc(OCC2CCCN(C)C2)c1Cl (stereo partly drawn) [Compound 1001]
1.5	Cc1c(COc2cc(OCc3cncc(C#N)c3)c(CNC3CCNC3=O)cc2Cl)cccc1-c1cccc(OCC2CCCN(C)C2)c1Cl (stereo not drawn) [Compound 1011]

More lines, now with the values behind:

Structure (SMILES)	IC50 [nM]
CCN(Cc1cc(Cl)c(OCc2cccc(-c3cccc(COc4cc(OCc5cncc(C#N)c5)c(CN(CC)C5CC(C)OC5=O)cc4Cl)c3C)c2C)cc1OCc1cncc(C#N)c1)C1CC(C)OC1=O (stereo not drawn) [Compound 1054]	2520
Cc1c(COc2cc(OCc3cncc(C#N)c3)c(CN(CC3CC3)C3(C)CCOC3=O)cc2Cl)cccc1-c1cccc(COc2cc(OCc3cncc(C#N)c3)c(CN(CC3CC3)C3(C)CCOC3=O)cc2Cl)c1C (stereo not drawn) [Compound 1052]	2500
COc1cc(OCc2cccc(-c3cccc(OCC4CCCN(C)C4)c3Cl)c2C)c(Cl)cc1CNC1CCNC1=O (stereo not drawn) [Compound 1038]	4.8
COc1cc(OCc2cccc(-c3cccc(OCC4CCCN(C)C4)c3Cl)c2C)c(Cl)cc1CN[C@@H]1CCOC1=O (stereo partly drawn) [Compound 1041]	9.1
Cc1c(COc2cc(OCc3cncc(C#N)c3)c(CNC3(C)CCOC3=O)cc2Cl)cccc1-c1cccc(COc2cc(OCc3cncc(C#N)c3)c(CNC3(C)CCOC3=O)cc2Cl)c1C (stereo not drawn) [Compound 1016]	110
Cc1c(COc2cc(OCc3cncc(C#N)c3)c(CNC3(C)CC(C)(C)OC3=O)cc2Cl)cccc1-c1cccc(OCC2CCCN(C)C2)c1Cl (stereo not drawn) [Compound 1009]	3
N#Cc1cncc(COc2cc(OCc3cccc(-c4cccc(COc5cc(OCc6cncc(C#N)c6)c(CN[C@H]6CCOC6=O)cc5Cl)c4Cl)c3Cl)c(Cl)cc2CN[C@H]2CCOC2=O)c1 [Compound 1026]	10.4
